Experimental data taken from US7795261B2, “Substituted 1-piperidin-4-yl-4-pyrrolidin-3-yl-piperazine derivatives and their use as neurokinin antagonists” (Janssen Pharmaceutica NV, priority 2002, dated 2010).

How the values were obtained:
Type in all cases: cell-based
NK1 = NK1 (Homo sapiens, UniProt P25103); experiment: Signal transduction (ST), intracellular Ca++ (FLIPR), NK1 antagonistic activity; conditions: read-out: pIC50 NK1 (converted)
How it was run: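 Antagonist IC50 was fitted by non-linear regression of peak intracellular Ca++ signals measured on FLIPR after agonist challenge. Beforehand, Fluo3-loaded confluent cells received antagonists over a concentration range for 20 min at room temperature in Ca++ Krebs buffer, pH 7.4.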

NK3 = biological target: T1, NK3 (Homo sapiens, UniProt P29371); experiment: Signal transduction (ST), intracellular Ca++ (FLIPR), NK3; conditions: read-out: pIC50 NK3 (converted)
T1 sequence (P29371 1-465): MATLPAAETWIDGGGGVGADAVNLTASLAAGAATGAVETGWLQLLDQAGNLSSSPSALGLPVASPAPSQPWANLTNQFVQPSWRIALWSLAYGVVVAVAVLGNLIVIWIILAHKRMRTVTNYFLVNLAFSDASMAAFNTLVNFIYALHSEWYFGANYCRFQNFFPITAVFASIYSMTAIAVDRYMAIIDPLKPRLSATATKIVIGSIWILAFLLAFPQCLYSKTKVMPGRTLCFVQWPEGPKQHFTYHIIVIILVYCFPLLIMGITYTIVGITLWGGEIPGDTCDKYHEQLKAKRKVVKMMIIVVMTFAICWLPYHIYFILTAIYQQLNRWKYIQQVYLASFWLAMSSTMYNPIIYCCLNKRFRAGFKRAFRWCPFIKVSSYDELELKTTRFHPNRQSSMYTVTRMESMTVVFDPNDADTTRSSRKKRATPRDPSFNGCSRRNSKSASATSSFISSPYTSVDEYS

NK2 = biological target: T2, NK2 (Homo sapiens, UniProt P21452); experiment: Signal transduction (ST), intracellular Ca++ (FLIPR), NK2; conditions: read-out: pIC50 NK2 (converted)
T2 sequence (P21452 1-398): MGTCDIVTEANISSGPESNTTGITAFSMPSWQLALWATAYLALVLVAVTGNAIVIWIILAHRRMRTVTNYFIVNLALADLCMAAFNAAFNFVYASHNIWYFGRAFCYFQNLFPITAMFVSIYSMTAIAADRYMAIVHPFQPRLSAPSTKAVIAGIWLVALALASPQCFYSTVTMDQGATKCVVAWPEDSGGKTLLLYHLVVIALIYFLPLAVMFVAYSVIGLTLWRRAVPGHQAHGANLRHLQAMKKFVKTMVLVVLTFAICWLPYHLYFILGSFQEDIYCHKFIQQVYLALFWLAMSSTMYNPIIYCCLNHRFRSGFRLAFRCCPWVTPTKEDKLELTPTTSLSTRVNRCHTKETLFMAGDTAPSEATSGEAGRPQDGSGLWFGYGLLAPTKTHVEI
Description: [The procedure below names another target; the source lists this target under the same test.] This test evaluates in vitro functional NK1 antagonistic activity. For the measurements of intracellular Ca^++ concentrations the cells were grown on 96-well (black wall/transparent bottom) plates from Costar for 2 days until they reached confluence. The cells were loaded with 2 μM Fluo3 in DMEM containing 0.1% BSA and 2.5 mM probenecid for 1 h at 37° C. They were washed 3× with a Krebs buffer (140 mM NaCl, 1 mM MgCl2×6H2O, 5 mM KCl, 10 mM glucose, 5 mM HEPES; 1.25 mM CaCl2; pH 7.4) containing 2.5 mM probenecid and 0.1% BSA (Ca^++-buffer). The cells were preincubated with a concentration range of antagonists for 20 min at RT and Ca^++-signals after addition of the agonists were measured in a Fluorescence Image Plate Reader (FLIPR from Molecular Devices, Crawley, England). The peak of the Ca^++-transient was considered as the relevant signal and the mean values of corresponding wells were analysed as described below.
The sigmoidal dose response curves were analysed by computerised curve-fitting, using the GraphPad Program. […] For antagonist responses the IC50-value was calculated using non-linear regression.
The last columns indicates—without being limited therefore—for which the compounds might be most suitable. Of course, since for some neurokinin receptors no data was determined, it is obvious that these compounds might be attributed to another suitable use.

NK1, sequence (P25103 whole entry): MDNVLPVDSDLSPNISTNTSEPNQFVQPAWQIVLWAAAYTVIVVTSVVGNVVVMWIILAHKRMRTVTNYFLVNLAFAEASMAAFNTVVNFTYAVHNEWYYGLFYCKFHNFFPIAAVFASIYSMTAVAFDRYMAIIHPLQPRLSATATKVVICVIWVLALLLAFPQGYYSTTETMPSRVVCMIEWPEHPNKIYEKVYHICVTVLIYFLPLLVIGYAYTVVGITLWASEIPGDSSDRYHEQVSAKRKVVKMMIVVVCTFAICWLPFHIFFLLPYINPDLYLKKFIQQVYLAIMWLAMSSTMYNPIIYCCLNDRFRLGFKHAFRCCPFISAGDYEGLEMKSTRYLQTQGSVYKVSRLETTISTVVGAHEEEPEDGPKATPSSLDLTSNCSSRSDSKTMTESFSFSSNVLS

Row | IC50 (NK1) | IC50 (NK3) | IC50 (NK2) | SMILES
1 | 0.01 µM | 0.501 µM | 1 µM | O=C(C1CC1)N1CCC(N2CCN([C@H]3CCN(C(=O)c4cc(C(F)(F)F)cc(C(F)(F)F)c4)[C@H](Cc4ccc(Cl)c(Cl)c4)C3)CC2)C1 (relative stereo) [Compound 162]
2 | 0.0126 µM | 0.251 µM | 1.26 µM | O=C(c1ccsc1)N1CC[C@@H](N2CCN([C@H]3CCN(C(=O)c4cc(C(F)(F)F)cc(C(F)(F)F)c4)[C@H](Cc4ccc(Cl)c(Cl)c4)C3)CC2)C1 [Compound 287]
3 | 0.0126 µM | 0.251 µM | 3.16 µM | O=C(c1cccs1)N1CC[C@@H](N2CCN([C@H]3CCN(C(=O)c4cc(C(F)(F)F)cc(C(F)(F)F)c4)[C@H](Cc4ccccc4)C3)CC2)C1 [Compound 321]
4 | 0.01 µM | 1 µM | 0.251 µM | O=C(c1cc(C(F)(F)F)cc(C(F)(F)F)c1)N1CC[C@H](N2CCN(C3CCN(S(=O)(=O)c4ccc(CCO)s4)C3)CC2)C[C@H]1Cc1ccccc1 (stereo partly drawn) [Compound 351]
5 | 0.00794 µM | 0.631 µM | 3.98 µM | O=C(c1cccs1)N1CC[C@H](N2CCN([C@H]3CCN(C(=O)c4cc(C(F)(F)F)cc(C(F)(F)F)c4)[C@H](Cc4ccccc4)C3)CC2)C1 [Compound 322]
6 | 0.02 µM | 0.501 µM | 2.51 µM | COC(=O)c1sccc1S(=O)(=O)N1CCC(N2CCN([C@H]3CCN(C(=O)c4cc(C(F)(F)F)cc(C(F)(F)F)c4)[C@H](Cc4ccccc4)C3)CC2)C1 (stereo partly drawn) [Compound 77]
7 | 0.00398 µM | 0.398 µM | 1.58 µM | O=C(C1CCOC1)N1CCC(N2CCN(C3CCN(C(=O)c4cc(C(F)(F)F)cc(C(F)(F)F)c4)C(Cc4ccc(Cl)c(Cl)c4)C3)CC2)C1 (single isomer, unassigned) [Compound 290]
8 | 0.1 µM | 5.01 µM | 6.31 µM | O=C(c1ccoc1)N1CC[C@H](N2CCN([C@@H]3CCN(C(=O)c4cc(C(F)(F)F)cc(C(F)(F)F)c4)[C@@H](Cc4ccc(Cl)c(Cl)c4)C3)CC2)C1 [Compound 250]
9 | 0.0126 µM | 0.2 µM | 5.01 µM | O=C(c1ccoc1)N1CCC(N2CCN(C3CCN(C(=O)c4cc(C(F)(F)F)cc(C(F)(F)F)c4)C(Cc4ccccc4)C3)CC2)C1 (single isomer, unassigned) [Compound 32]
10 | 0.00631 µM | 0.1 µM | 2 µM | Cn1cccc1C(=O)N1CCC(N2CCN(C3CCN(C(=O)c4cc(C(F)(F)F)cc(C(F)(F)F)c4)C(Cc4ccc(F)c(F)c4)C3)CC2)C1 (single isomer, unassigned) [Compound 366]
11 | 0.0158 µM | 0.398 µM | 0.0794 µM | O=C(c1ccccc1Cl)N1CCC(N2CCN([C@H]3CCN(C(=O)c4cc(C(F)(F)F)cc(C(F)(F)F)c4)[C@H](Cc4ccc(Cl)c(Cl)c4)C3)CC2)C1 (relative stereo) [Compound 164]
12 | 0.0501 µM | – | 2.51 µM | O=C(c1cccnc1)N1CCC(N2CCN([C@H]3CCN(C(=O)c4cc(C(F)(F)F)cc(C(F)(F)F)c4)[C@H](Cc4ccccc4)C3)CC2)C1 (stereo partly drawn) [Compound 28]
13 | 0.01 µM | 0.631 µM | 0.316 µM | O=C(c1ccsc1)N1CCC(N2CCN(C3CCN(C(=O)c4cc(C(F)(F)F)cc(C(F)(F)F)c4)C(Cc4ccc(F)c(F)c4)C3)CC2)C1 (single isomer, unassigned) [Compound 257]
14 | 0.0158 µM | 0.251 µM | 7.94 µM | O=C(c1ccccc1Cl)N1CCC(N2CCN([C@H]3CCN(C(=O)c4cc(C(F)(F)F)cc(C(F)(F)F)c4)[C@H](Cc4ccccc4)C3)CC2)C1 (stereo partly drawn) [Compound 17]
15 | 0.01 µM | 2 µM | 0.794 µM | COc1ccccc1S(=O)(=O)N1CCC(N2CCN([C@H]3CCN(C(=O)c4cc(C(F)(F)F)cc(C(F)(F)F)c4)[C@H](Cc4ccccc4)C3)CC2)C1 (stereo partly drawn) [Compound 300]
16 | 0.02 µM | 1 µM | 2 µM | O=C(c1ccccc1F)N1CCC(N2CCN(C3CCN(C(=O)c4cc(C(F)(F)F)cc(C(F)(F)F)c4)C(Cc4ccc(Cl)c(Cl)c4)C3)CC2)C1 (stereo not drawn) [Compound 174]

Row | IC50 (NK1) | IC50 (NK3) | IC50 (NK2) | SMILES
17 | 0.00631 µM | 0.251 µM | 0.794 µM | O=C(c1cnccn1)N1CCC(N2CCN(C3CCN(C(=O)c4cc(C(F)(F)F)cc(C(F)(F)F)c4)C(Cc4ccc(Cl)c(Cl)c4)C3)CC2)C1 (stereo not drawn) [Compound 171]
18 | 0.00631 µM | 0.398 µM | 1 µM | O=C(c1cnccn1)N1CC[C@@H](N2CCN([C@H]3CCN(C(=O)c4cc(C(F)(F)F)cc(C(F)(F)F)c4)[C@H](Cc4ccc(Cl)c(Cl)c4)C3)CC2)C1 [Compound 286]
19 | 0.2 µM | – | 0.501 µM | O=C(c1cc(C(F)(F)F)cc(C(F)(F)F)c1)N1CC[C@H](N2CCN(C3CCN(S(=O)(=O)c4ccc(COCc5ccccc5)s4)C3)CC2)C[C@H]1Cc1ccccc1 (stereo partly drawn) [Compound 345]
20 | 0.0158 µM | 2 µM | 3.98 µM | O=C(c1ccsc1)N1CCC(N2CCN(C3CCN(C(=O)c4cc(C(F)(F)F)cc(C(F)(F)F)c4)C(Cc4ccc(F)cc4)C3)CC2)C1 (stereo not drawn) [Compound 278]
21 | 0.00501 µM | 0.501 µM | 0.398 µM | Cc1nnsc1C(=O)N1CCC(N2CCN(C3CCN(C(=O)c4cc(C(F)(F)F)cc(C(F)(F)F)c4)C(Cc4ccc(F)c(F)c4)C3)CC2)C1 (single isomer, unassigned) [Compound 253]
22 | 0.00631 µM | – | 0.501 µM | O=C(c1cc(C(F)(F)F)cc(C(F)(F)F)c1)N1CC[C@H](N2CCN([C@@H]3CCNC3)CC2)C[C@H]1Cc1ccc(Cl)c(Cl)c1 [Compound 262]
23 | 0.02 µM | – | 7.94 µM | O=C(C1CCCCN1)N1CCC(N2CCN(C3CCN(C(=O)c4cc(C(F)(F)F)cc(C(F)(F)F)c4)C(Cc4ccccc4)C3)CC2)C1 (stereo not drawn) [Compound 294]
24 | 0.0794 µM | – | 2 µM | Cn1cc(C(=O)N2CCC(N3CCN([C@H]4CCN(C(=O)c5cc(C(F)(F)F)cc(C(F)(F)F)c5)[C@H](Cc5ccccc5)C4)CC3)C2)ccc1=O (stereo partly drawn) [Compound 29]
25 | 0.316 µM | – | 1 µM | O=C(c1cc(C(F)(F)F)cc(C(F)(F)F)c1)N1CCC(N2CCN(C3CCN(S(=O)(=O)c4cc(CCOCc5ccccc5)cs4)C3)CC2)CC1Cc1ccccc1 (stereo not drawn) [Compound 335]
26 | 0.02 µM | – | 2.51 µM | COc1ccc(C(O)C(=O)N2CCC(N3CCN([C@H]4CCN(C(=O)c5cc(C(F)(F)F)cc(C(F)(F)F)c5)[C@H](Cc5ccccc5)C4)CC3)C2)cc1 (stereo partly drawn) [Compound 333]
27 | 0.0501 µM | – | 1.26 µM | O=C(c1cc(C(F)(F)F)cc(C(F)(F)F)c1)N1CC[C@H](N2CCN(C3CCN(S(=O)(=O)c4occc4CCOCc4ccccc4)C3)CC2)C[C@H]1Cc1ccccc1 (stereo partly drawn) [Compound 410]
28 | 0.02 µM | – | 3.98 µM | CC(C)N/C(=N\C#N)N1CCC(N2CCN(C3CCN(C(=O)c4cc(C(F)(F)F)cc(C(F)(F)F)c4)C(Cc4ccccc4)C3)CC2)C1 (stereo not drawn) [Compound 344]
29 | 0.158 µM | – | 1 µM | O=C(c1cc(C(F)(F)F)cc(C(F)(F)F)c1)N1CC[C@H](N2CCN(C3CCN(S(=O)(=O)c4ccc(CCOCc5ccccc5)s4)C3)CC2)C[C@H]1Cc1ccccc1 (stereo partly drawn) [Compound 336]
30 | 0.0398 µM | 3.16 µM | – | CC(C)(C)OC(=O)N1CCC(N2CCN(C3CCN(C(=O)c4cc(C(F)(F)F)cc(C(F)(F)F)c4)C(Cc4ccccc4)C3)CC2)C1 (stereo not drawn) [Compound 130]
31 | 0.0158 µM | 2.51 µM | – | O=C(C(=O)N1CCC(N2CCN(C3CCN(C(=O)c4cc(C(F)(F)F)cc(C(F)(F)F)c4)C(Cc4ccccc4)C3)CC2)C1)c1ccco1 (single isomer, unassigned) [Compound 191]
